# Key:
# nondescript mice = conditions: both, mouse, in vivo
# Method: Diclofenac was used for the comparison of the therapeutic activity of Boswellik. Studies were performed on both male and female nondescript mice after oral administration of the preparations.
# [1] = system: isolated human blood cells; assay: in vitro synthesis of immunoglobulins by isolated human blood cells; type: cell-based
# [2] = system: formalin-induced arthritis in rabbits; assay: formalin-induced arthritis in rabbits (hematology and joint histology)
# Method: Experiments were carried out on 51 rabbits “Chinchilla” having a weight of 2800-3200 g. […] An arthritis model was caused by administration of 0.1 ml of a 2% formalin solution into the cavity of the knee joint—and a model of acute arthritis was obtained after twenty-four hours.
# The investigated agent and diclofenac were administered according to the following regimen: for preventive purposes 4 days prior to simulation of the arthritis on time per day intragastrically via a probe and on the 4th day 4 hours prior to the administration of formalin.
# Animals were euthanized under hexobarbital anesthesia after 3, 7 and 14 days after the induction of arthritis. Prior to beginning of the experiment and prior to euthanasia, blood was taken from the ear vein, and was used to determine hematologic parameters.
# For a pathomorphological study, the joints were extracted together with the surrounding tissues and fixed in 10% neutral formalin.
# peritonitis in mice = assay: acute exudative inflammation (peritonitis) caused by intraperitoneal injection of acetic acid, mice; type: in vivo; conditions: 8 mg/kg
# Text: (§1) The evaluation of the anti-inflammatory activity for Boswellik has been carried out in a model of the acute inflammatory process—peritonitis—in rats and mice, caused by the intraperitoneal injection of acetic acid.
# peritonitis in rats = assay: acute exudative inflammation (peritonitis) caused by intraperitoneal injection of acetic acid, rats; type: in vivo; conditions: 8 mg/kg
# Text: as §1
# [3] = diclofenac 8 mg/kg, present agent 250 mg/kg
# [4] = diclofenac 8 mg/kg, present agent 250 mg/kg, all observation periods
smiles,measurement,setting,value
O=C(O)Cc1ccccc1Nc1c(Cl)cccc1Cl [Diclofenac],safety index (ratio of ulcerogenicity/efficacy),nondescript mice,4.3-9.9
same,influence on the synthesis of immunoglobulins,[1],specific immunomodulating influence on the synthesis of immunoglobulins
same,"histological study of the joints, first observation",[2]; 3 days after the beginning (time printed for present agent only),inflammatory and destructive changes were observed
same,"histological study of the joints, 7 days",[2]; 7 days,articulate surfaces had uneven outlines
same,"histological study of the joints, 14 days",[2]; 14 days,surface of articulate cartilages was smoothed down
same,time until inflammatory process calmed down / destructive changes in articulate cartilages were reduced,"[2]; diclofenac 8 mg/kg (most of the animals), present agent 250 mg/kg",14 days
same,average content of hemoglobin in the erythrocyte,[2]; [3],decreased
same,number of monocytes,[2]; [3],not changed
same,number of erythrocytes and hemoglobin in the peripheral blood,"[2]; diclofenac 8 mg/kg, present agent 250 mg/kg, intragastric, vs initial level",substantially reduced
same,number of granulocytes,[2]; [4],increased
same,number of leukocytes,[2]; [4],insignificantly reduced
same,level of thrombocytes,"[2]; diclofenac 8 mg/kg, present agent 250 mg/kg, entire period of the study",decrease
same,hematocrit,"[2]; diclofenac 8 mg/kg, present agent 250 mg/kg, whole period of observation",reduced
same,Degree of the anti-exudative effect A = [Ro − Rk]/Rk100%,peritonitis in mice,85%
same,Volume of the peritoneal exudate,peritonitis in mice; n = 10,37 ± 2 µL
same,influence on the volume of the inflammatory exudate in the abdominal cavity,"peritonitis in rats; compared with Boswellik 100 and 130 mg/kg, rats and mice",considerably weaker influence
same,Degree of the anti-exudative effect A = [Ro − Rk]/Rk100%,peritonitis in rats; rats,24%
same,Volume of the peritoneal exudate,"peritonitis in rats; rats, n = 10",3350 ± 220 µL
